What was measured:
[1] = Acute toxicity (LD50), ICR-JCL female mice, Litchfield-Wilcoxon graph method; conditions: mouse, in vivo, one dose, in olive oil, after 7 days
Procedure: In the measurement of LD50, eight ICR-JCL female mice (5 week age) were used as one group to breed in a transparent polycage, and each drug was dissolved in olive oil and administrated by routes of intraperitoneal injection (i.p.), oral administration (p.o.) and subcutaneous injection (s.c.), to the mice at one dose and then, their value of LD50 by Litchfield-Wilcoxon graph method is obtained after 7 days.
(§1) The tests (1), (2), (3) for various active ingredients were carried out.

[2] = tested on: human breast cancer cells having steroid hormone receptor; assay: Antitumor test (in vivo), human breast cancer cells implanted in BALB/C-nu/nu mice; conditions: tumors excised day 25
Procedure: Pieces of human breast cancer cells having steroid hormone receptor was subcutaneously implanted under the arm of mice (BALB/C-nu/nu) (5 week age) to form solid tumors. After the solid tumors were established, each dispersion or solution of the active ingredient in olive oil was administered by oral dose or intraperitoneal injection each other day for 10 times or every days for 20 times. Twenty five days from the initial administration, the tumors were excised. Efficiency of inhibition of tumor proliferation was measured from (A) each average weight of excised tumors for 10 mice (the active ingredient was administrated) and (B) each average weight of excised tumors for 10 control mice. [formula]
as §1

| SMILES | LD50 at 168 h ([1]; ip) [mg/kg] | LD50 at 168 h ([1]; po) [mg/kg] | Inhibitory effect of tumor, efficiency ([2]; p.o., 10 mg/kg) [%] | Inhibitory effect of tumor, efficiency ([2]; p.o., 50 mg/kg) [%] | also measured |
| --- | --- | --- | --- | --- | --- |
| CN(Cc1cnc2nc(N)nc(N)c2n1)c1ccc(C(=O)N[C@@H](CCC(=O)O)C(=O)O)cc1 [Test No. 12 (Table 18), 4-amino-N^10 --methylpteroyl glutamate, reference compound] | 94 | 230 | 31 | 42 | Inhibitory effect of tumor, efficiency ([2]; i.p., 5 mg/kg): 48%; Inhibitory effect of tumor, efficiency ([2]; i.p., 20 mg/kg): 65% |
| CCC(=O)Oc1ccc2c(c1)CC[C@@H]1[C@@H]2CC[C@]2(C)[C@@H](OC(=O)Cn3cc(F)c(=O)[nH]c3=O)CC[C@@H]12 [Test No. 10 (Table 18), 3-propionyloxy-1,3,5(10)-estratriene-17β-[5-fluoro-2,4-dioxo-pyrimidin-1-yl]acetate] | 740 | > 3000 | – | – | Inhibitory effect of tumor, efficiency ([2]; i.p., 15 mg/kg): 81%; Inhibitory effect of tumor, efficiency ([2]; i.p., 30 mg/kg): 91%; Inhibitory effect of tumor, efficiency ([2]; p.o., 15 mg/kg): 72%; Inhibitory effect of tumor, efficiency ([2]; p.o., 30 mg/kg): 83% |
| CCC(=O)Oc1ccc2c(c1)CC[C@@H]1[C@@H]2CC[C@]2(C)[C@@H](OC(=O)CN[C@H]3C[C@H](O[C@H]4C[C@](O)(C(=O)CO)Cc5c(O)c6c(c(O)c54)C(=O)c4c(OC)cccc4C6=O)O[C@@H](C)[C@H]3O)CC[C@@H]12 [compound 16] | – | > 3000 | 69 | 83 | – |
| N[C@@H](Cc1ccc(N(CCCl)CCCl)cc1)C(=O)O [compound 21] | 6.2 | 15.9 | – | – | Inhibitory effect of tumor, efficiency ([2]; i.p., 0.1 mg/kg): 51%; Inhibitory effect of tumor, efficiency ([2]; i.p., 0.5 mg/kg): 57%; Inhibitory effect of tumor, efficiency ([2]; p.o., 1 mg/kg): 61%; Inhibitory effect of tumor, efficiency ([2]; p.o., 3 mg/kg): 72% |
| COc1cccc2c1C(=O)c1c(O)c3c(c(O)c1C2=O)C[C@@](O)(C(=O)CO)C[C@@H]3O[C@H]1C[C@H](NCC(=O)O[C@H]2CC[C@H]3[C@@H]4CCc5cc(O)ccc5[C@H]4CC[C@]23C)[C@H](O)[C@H](C)O1 [Test No. 14 (Table 18), 3-glycoloyl-1,2,3,4,6,11-hexahydro-3,5,12-trihydroxy-10-methoxy-6,11-dioxo-1-naphthacenyl-3'-[3-hydroxy-1,3,5(10)-estratriene-17β-oxycarbonylmethyl]amino-2',3',6'-trideoxy-α-L-lyxo-hexapyranoside] | – | > 3000 | 63 | 71 | – |
| O=NN(CCCl)C(=O)N[C@H]1C(O)O[C@H](CO)[C@@H](O)[C@@H]1O (stereo partly shown) [Test No. 1 (Table 18), reference compound] | 48 | 210 | 13 | – | Inhibitory effect of tumor, efficiency ([2]; i.p., 3 mg/kg): 18%; Inhibitory effect of tumor, efficiency ([2]; i.p., 10 mg/kg): 58%; Inhibitory effect of tumor, efficiency ([2]; p.o., 40 mg/kg): 60% |
| COc1cccc2c1C(=O)c1c(O)c3c(c(O)c1C2=O)C[C@@](O)(C(=O)CO)C[C@@H]3O[C@H]1C[C@H](NCC(=O)O[C@H]2CC[C@H]3[C@@H]4CCc5cc(OC(C)=O)ccc5[C@H]4CC[C@]23C)[C@H](O)[C@H](C)O1 [Test No. 15 (Table 18), 3-glycoloyl-1,2,3,4,6,11-hexahydro-3,5,12-trihydroxy-10-methoxy-6,11-dioxo-1-naphthacenyl-3'-[3-acetoxy-1,3,5(10)-estratriene-17β-oxycarbonylmethyl]amino-2',3',6'-trideoxy-α-L-lyxo-hexapyranoside] | – | > 3000 | 53 | 79 | – |
| COc1cccc2c1C(=O)c1c(O)c3c(c(O)c1C2=O)C[C@@](O)(C(=O)CO)C[C@@H]3O[C@H]1C[C@H](NCC(=O)O[C@H]2CC[C@H]3[C@@H]4CCc5cc(OC(=O)c6ccccc6)ccc5[C@H]4CC[C@]23C)[C@H](O)[C@H](C)O1 [compound 17] | – | > 3000 | 70 | 79 | – |
| CN(N=O)C(=O)N[C@H]1C(O)O[C@H](CO)[C@@H](O)[C@@H]1O (stereo partly drawn) [Test No. 5 (Table 18), 2-(N'--methyl-N'--nitrosoureido)-2-deoxy-D-glucopyranoside, reference compound] | 264 | > 1000 | 69 | – | Inhibitory effect of tumor, efficiency ([2]; i.p., 10 mg/kg): 20%; Inhibitory effect of tumor, efficiency ([2]; i.p., 50 mg/kg): 63%; Inhibitory effect of tumor, efficiency ([2]; p.o., 40 mg/kg): 86% |
| COc1cccc2c1C(=O)c1c(O)c3c(c(O)c1C2=O)C[C@@](O)(C(C)=O)C[C@@H]3O[C@H]1C[C@H](N)[C@H](O)[C@H](C)O1 [compound 18] | 5 | 20 | – | – | Inhibitory effect of tumor, efficiency ([2]; i.p., 0.5 mg/kg): 47%; Inhibitory effect of tumor, efficiency ([2]; i.p., 1 mg/kg): 78%; Inhibitory effect of tumor, efficiency ([2]; p.o., 1 mg/kg): 59% |
| CC(=O)Oc1ccc2c(c1)CC[C@@H]1[C@@H]2CC[C@]2(C)[C@@H](OC(=O)Cn3cc(F)c(=O)[nH]c3=O)CC[C@@H]12 [Test No. 9 (Table 18), 3-acetoxy-1,3,5(10)-estratriene-17β-[5-fluoro-2,4-dioxo-pyrimidin-1-yl]acetate] | 800 | > 3000 | – | – | Inhibitory effect of tumor, efficiency ([2]; i.p., 15 mg/kg): 84%; Inhibitory effect of tumor, efficiency ([2]; i.p., 30 mg/kg): 93%; Inhibitory effect of tumor, efficiency ([2]; p.o., 15 mg/kg): 72%; Inhibitory effect of tumor, efficiency ([2]; p.o., 30 mg/kg): 87% |
| COc1cccc2c1C(=O)c1c(O)c3c(c(O)c1C2=O)C[C@@](O)(C(=O)CO)C[C@@H]3O[C@H]1C[C@H](N)[C@H](O)[C@H](C)O1 [Test No. 13 (Table 18), 3-glycoloyl-1,2,3,4,6,11-hexahydro-3,5,12-trihydroxy-10-methoxy-6,11-dioxo-1-naphthacenyl-3'-amino-2',3',6'-trideoxy-α-L-lyxo-hexapyranoside, reference compound] | – | 730 | 20 | – | Inhibitory effect of tumor, efficiency ([2]; i.p., 10 mg/kg): 20% |
| C[C@]12CC[C@@H]3c4ccc(OC(=O)c5ccccc5)cc4CC[C@H]3[C@@H]1CC[C@@H]2OC(=O)COCCNc1nc(N2CC2)nc(N2CC2)n1 [compound 20] | > 15 | > 2000 | – | – | Inhibitory effect of tumor, efficiency ([2]; i.p., 0.1 mg/kg): 74%; Inhibitory effect of tumor, efficiency ([2]; p.o., 1 mg/kg): 78%; Inhibitory effect of tumor, efficiency ([2]; p.o., 5 mg/kg): 87% |
| COc1cccc2c1C(=O)c1c(O)c3c(c(O)c1C2=O)C[C@@](O)(C(C)=O)C[C@@H]3O[C@H]1C[C@H](NCC(=O)O[C@H]2CC[C@H]3[C@@H]4CCc5cc(O)ccc5[C@H]4CC[C@]23C)[C@H](O)[C@H](C)O1 [compound 19] | > 15 | > 2000 | – | – | Inhibitory effect of tumor, efficiency ([2]; i.p., 0.1 mg/kg): 90%; Inhibitory effect of tumor, efficiency ([2]; i.p., 0.5 mg/kg): 99%; Inhibitory effect of tumor, efficiency ([2]; p.o., 1 mg/kg): 72%; Inhibitory effect of tumor, efficiency ([2]; p.o., 5 mg/kg): 85% |
| C[C@]12CC[C@@H]3c4ccc(O)cc4CC[C@H]3[C@@H]1CC[C@@H]2OC(=O)COC(=O)[C@H]1OC(O)[C@H](NC(=O)N(CCCl)N=O)[C@@H](O)[C@@H]1O (stereo partly drawn) [Test No. 2 (Table 18), 3-hydroxy-1,3,5(10)-estratriene-17β-[2-{N'-(2-chloroethyl)-N'-nitrosoureido}-2-deoxy-D-glucuronoyloxy]acetate] | > 180 | > 1000 | 73 | – | Inhibitory effect of tumor, efficiency ([2]; i.p., 1 mg/kg): 90%; Inhibitory effect of tumor, efficiency ([2]; i.p., 3 mg/kg): 92%; Inhibitory effect of tumor, efficiency ([2]; p.o., 40 mg/kg): 89% |
| O=c1[nH]cc(F)c(=O)[nH]1 [Test No. 8 (Table 17), 5-fluoro-2,4-dioxo-pyrimidine, reference compound] | 242 | 900 | – | – | Inhibitory effect of tumor, efficiency ([2]; i.p., 10 mg/kg): 30%; Inhibitory effect of tumor, efficiency ([2]; i.p., 20 mg/kg): 50%; Inhibitory effect of tumor, efficiency ([2]; p.o., 15 mg/kg): 30%; Inhibitory effect of tumor, efficiency ([2]; p.o., 30 mg/kg): 60% |
